Laboratory results from patent US10952992B2, “Methods of treating intraocular pressure with activators of Tie-2” (Aerpio Pharmaceuticals, Inc., priority 2015, dated 2021).
Values joined by “and” are separate entries in the source; they are usually repeats but may differ in a detail not shown here. Equal entries are not always repeated.

Experiment: Example 2 iris, retina, choroid and cornea tissue concentrations
Assay type: in vivo, male New Zealand White rabbits
Conditions: for Choroid tissue Conc. OD / Cornea Conc. OD / Cornea tissue Conc. OD / Iris Conc. OD / Iris tissue Conc. OD / Retina Conc. OD / Retina tissue Conc. OD: right eye; for Choroid tissue Conc. OD / Choroid tissue Conc. OS / Cornea Conc. OS / Cornea Conc. OD / Cornea tissue Conc. OS / Cornea tissue Conc. OD / Iris Conc. OS / Iris Conc. OD / Iris tissue Conc. OS / Iris tissue Conc. OD / Retina Conc. OS / Retina Conc. OD / Retina tissue Conc. OS / Retina tissue Conc. OD: individual animals; for Choroid tissue Conc. OD / Choroid tissue Conc. Avg. / Choroid tissue Conc. OS / Cornea Conc. OS / Cornea Conc. OD / Cornea tissue Conc. Avg. / Cornea tissue Conc. OS / Cornea tissue Conc. OD / Iris Conc. OS / Iris Conc. OD / Iris tissue Conc. Avg. / Iris tissue Conc. OS / Iris tissue Conc. OD / Retina Conc. OS / Retina Conc. OD / Retina tissue Conc. Avg. / Retina tissue Conc. OS / Retina tissue Conc. OD: intravitreal 2.5 mg/eye (~1.54 mg/kg), group 5; for Choroid tissue Conc. Avg. / Cornea tissue Conc. Avg. / Iris tissue Conc. Avg. / Retina tissue Conc. Avg.: average; for Choroid tissue Conc. OS / Cornea Conc. OS / Cornea tissue Conc. OS / Iris Conc. OS / Iris tissue Conc. OS / Retina Conc. OS / Retina tissue Conc. OS: left eye; for Cornea Conc. OS / Cornea Conc. OD: cornea homogenate; for Iris Conc. OS / Iris Conc. OD: iris homogenate; for Retina Conc. OS / Retina Conc. OD: retina homogenate
Procedure: To measure the concentration of Compound 1 in plasma and ocular tissues following topical ocular, subcutaneous, and intravitreal administration, New Zealand White rabbits were administered Compound 1, and plasma and ocular samples were collected at pre-determined time points. Compound 1 formulations were prepared fresh on each day of dosing.
Ocular tissue samples from both eyes of each animal were collected and weights were recorded. Plasma and ocular tissue sample concentrations of Compound 1 were determined by LC-MS/MS.
Animals were anesthetized for ocular (topical) and intravitreal dosing following the 12IA7 IACUC protocol. Each rabbit received a bolus dose of test formulation either via topical ocular administration 3 times daily on Days 1 and 2 (at 0, 6, and 12 hours), and once on Day 3 (at 0 hours) into both eyes; via intravitreal administration into both eyes once on Day 1 (at 0 hours); or via subcutaneous administration 2 times daily on Days 1 and 2 (at 0 and 8 hours) and once daily on Day 3 (at 0 hours). Doses were given within an approximately 1 hour window each day where applicable.
On Day 1, for intravitreal administration, or on Day 3, for topical ocular and subcutaneous administration, at the appropriate ocular tissue collection time points, animals were euthanized and both eyes were enucleated immediately. Following enucleation, each eye was rinsed with phosphate-buffered saline. Ocular tissue samples from both eyes of each animal were collected at predetermined time points and weights were recorded. All the samples were frozen immediately on dry ice, and stored at −60° C. to −80° C. pending bioanalysis.
An LC-MS/MS method was developed for the determination of Compound 1 in rabbit aqueous tissues (plasma, aqueous and vitreous humor) and solid ocular tissue samples. A pre-study standard curve was analyzed to determine the specificity, range, and lower limit of quantitation of the method. Plasma and tissue homogenate study samples were extracted and analyzed. All the samples were treated identically to the standards.
One eight-point standard curve was used in each analytical batch. To be accepted, each batch must have had at least five of eight standards with accuracy within ±20% of nominal, except at the lower limit of quantification (LLOQ), where ±25% was acceptable.

Choroid tissue Conc. OD (6.0 hr): 360800 ng/g and 829400 ng/g | Choroid tissue Conc. Avg. (24 hr): 397650 ng/g | Choroid tissue Conc. OS (24 hr): 312400 ng/g and 478500 ng/g | Choroid tissue Conc. OD (24 hr): 167200 ng/g and 632500 ng/g | Choroid tissue Conc. Avg. (48 hr): 120010 ng/g | Choroid tissue Conc. OS (48 hr): 102520 ng/g | Choroid tissue Conc. OD (48 hr): 109340 ng/g and 105380 ng/g | Choroid tissue Conc. Avg. (72 hr): 27555 ng/g | Choroid tissue Conc. OS (72 hr): 29260 ng/g and 32010 ng/g | Choroid tissue Conc. OD (72 hr): 23980 ng/g and 24970 ng/g | Cornea Conc. OS (6.0 hr): 3140 ng/mL and 1180 ng/mL | Cornea Conc. OD (6.0 hr): 7910 ng/mL and 7610 ng/mL | Cornea Conc. OS (24 hr): 1190 ng/mL and 1050 ng/mL | Cornea Conc. OD (24 hr): 1520 ng/mL and 2520 ng/mL | Cornea Conc. OS (48 hr): 293 ng/mL and 571 ng/mL | Cornea Conc. OD (48 hr): 437 ng/mL and 384 ng/mL | Cornea Conc. OS (72 hr): 117 ng/mL and 45.3 ng/mL | Cornea Conc. OD (72 hr): 37.7 ng/mL and 77.2 ng/mL | Cornea tissue Conc. Avg. (6.0 hr): 54560 ng/g | Cornea tissue Conc. OS (6.0 hr): 34540 ng/g and 12980 ng/g | Cornea tissue Conc. OD (6.0 hr): 87010 ng/g and 83710 ng/g | Cornea tissue Conc. Avg. (24 hr): 17270 ng/g | Cornea tissue Conc. OS (24 hr): 13090 ng/g and 11550 ng/g | Cornea tissue Conc. OD (24 hr): 16720 ng/g and 27720 ng/g | Cornea tissue Conc. Avg. (48 hr): 4634 ng/g | Cornea tissue Conc. OS (48 hr): 3223 ng/g and 6281 ng/g | Cornea tissue Conc. OD (48 hr): 4807 ng/g and 4224 ng/g | Cornea tissue Conc. Avg. (72 hr): 762 ng/g | Cornea tissue Conc. OS (72 hr): 1287 ng/g and 498 ng/g | Cornea tissue Conc. OD (72 hr): 415 ng/g and 849 ng/g | ocular tissue concentrations at 72 hours, free acid suspension relative to sodium salt solution (intravitreal administration): higher concentrations | Iris Conc. OS (6.0 hr): 13800 ng/mL and 12200 ng/mL | Iris Conc. OD (6.0 hr): 18500 ng/mL and 32100 ng/mL | Iris Conc. OS (24 hr): 14100 ng/mL and 8200 ng/mL | Iris Conc. OD (24 hr): 7670 ng/mL and 11000 ng/mL | Iris Conc. OS (48 hr): 1950 ng/mL and 2030 ng/mL | Iris Conc. OD (48 hr): 1010 ng/mL and 1110 ng/mL | Iris Conc. OS (72 hr): 1800 ng/mL and 1320 ng/mL | Iris Conc. OD (72 hr): 279 ng/mL and 351 ng/mL | Iris tissue Conc. Avg. (6.0 hr): 210650 ng/g | Iris tissue Conc. OS (6.0 hr): 151800 ng/g and 134200 ng/g | Iris tissue Conc. OD (6.0 hr): 203500 ng/g and 353100 ng/g | Iris tissue Conc. Avg. (24 hr): 112668 ng/g | Iris tissue Conc. OS (24 hr): 155100 ng/g and 90200 ng/g | Iris tissue Conc. OD (24 hr): 84370 ng/g and 121000 ng/g | Iris tissue Conc. Avg. (48 hr): 16775 ng/g | Iris tissue Conc. OS (48 hr): 21450 ng/g and 22330 ng/g | Iris tissue Conc. OD (48 hr): 11110 ng/g and 12210 ng/g | Iris tissue Conc. Avg. (72 hr): 10313 ng/g | Iris tissue Conc. OS (72 hr): 19800 ng/g and 14520 ng/g | Iris tissue Conc. OD (72 hr): 3069 ng/g and 3861 ng/g | Retina Conc. OS (6.0 hr): 154000 ng/mL and 120000 ng/mL | Retina Conc. OD (6.0 hr): 146000 ng/mL and 303000 ng/mL | Retina Conc. OS (24 hr): 98900 ng/mL and 198000 ng/mL | Retina Conc. OD (24 hr): 130000 ng/mL and 145000 ng/mL | Retina Conc. OS (48 hr): 14000 ng/mL and 101000 ng/mL | Retina Conc. OD (48 hr): 66700 ng/mL and 65500 ng/mL | Retina Conc. OS (72 hr): 10800 ng/mL and 12900 ng/mL | Retina Conc. OD (72 hr): 9890 ng/mL and 6070 ng/mL | Retina tissue Conc. Avg. (6.0 hr): 1988250 ng/g | Retina tissue Conc. OS (6.0 hr): 1694000 ng/g and 1320000 ng/g | Retina tissue Conc. OD (6.0 hr): 1606000 ng/g | Retina tissue Conc. Avg. (24 hr): 1572725 ng/g | Retina tissue Conc. OS (24 hr): 1087900 ng/g and 2178000 ng/g | Retina tissue Conc. OD (24 hr): 1430000 ng/g and 1595000 ng/g | Retina tissue Conc. Avg. (48 hr): 679800 ng/g | Retina tissue Conc. OS (48 hr): 154000 ng/g and 1111000 ng/g | Retina tissue Conc. OD (48 hr): 733700 ng/g and 720500 ng/g | Retina tissue Conc. Avg. (72 hr): 109065 ng/g | Retina tissue Conc. OS (72 hr): 118800 ng/g and 141900 ng/g | Retina tissue Conc. OD (72 hr): 108790 ng/g and 66770 ng/g | distribution among iris, retina, choroid, cornea (FIG. 14) (subcutaneous 5 mg/kg/dose, free acid): generally higher in the iris and choroid
SMILES: COC(=O)N[C@@H](Cc1ccccc1)C(=O)N[C@@H](Cc1ccc(NS(=O)(=O)O)cc1)c1csc(-c2cccs2)n1 [Compound 1 free acid]
distribution among iris, retina, choroid, cornea (FIG. 16) (intravitreal 1.54 mg/kg, free acid): generally higher in the retina and choroid
